Measurements: PubChem BioAssay AID1963853 (Molecular Pharmacology Branch, DTP, NCI, 2024)

Test system: 266295-075-R-J1-PDC spheroid viability
Experiment: Anticancer human tumor 266295-075-R-J1-PDC patient-derived head and neck squamous carcinoma cell line growth inhibition [POLQ]
Conditions: spheroids with HUVEC and MSC; for IC50: curve of first compound; for viability, T/C: stronger effect = lower value
How it was run: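 Patient-derived tumour cells were co-cultured with HUVEC and mesenchymal stem cells as multicellular spheroids at 37 °C. They were treated with POLQ inhibitors (novobiocin, ART-558, RP6685) alone or combined with other agents. Top concentrations were at or near clinical Cmax (otherwise 10 microM; SN-38 at 1 microM), decreasing in half-log steps.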
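Also: spheroids exposed to compounds for seven days before readout.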

`CC1COCCN1c1cc(C2(O)CC3CCC(C2)O3)c2cnn(-c3ccn[nH]3)c2n1` (configuration not stated) + Nc1ccc(C#CCN(C(=O)Cc2ncc(C(F)(F)F)cc2C(F)(F)F)c2ccc(F)cc2)nn1 was tested, and the IC50 (second compound 0.0316 µM) was 996 nM, the IC50 (second compound 0.1 µM) was 591 nM and the IC50 (second compound 0.316 µM) was 324 nM. For the same compound, the IC50 (second compound 1 µM) was 903 nM, the IC50 (second compound 3.16 µM) was 831 nM and the IC50 (second compound 10 µM) was 706 nM. The viability, T/C (second compound 0.0316 µM, first compound 0.0316 µM) was 80.4%, the viability, T/C (second compound 0.0316 µM, first compound 0.1 µM) was 112% and the viability, T/C (second compound 0.0316 µM, first compound 0.316 µM) was 67.6%. The viability, T/C (second compound 0.0316 µM, first compound 1 µM) was 54.4%, the viability, T/C (second compound 0.0316 µM, first compound 3.16 µM) was 42.5% and the viability, T/C (second compound 0.0316 µM, first compound 10 µM) was 32.3%. It also gave a viability, T/C (second compound 0.1 µM, first compound 0.0316 µM) of 96.9%, a viability, T/C (second compound 0.1 µM, first compound 0.1 µM) of 85.9% and a viability, T/C (second compound 0.1 µM, first compound 0.316 µM) of 53.5%. The viability, T/C (second compound 0.1 µM, first compound 1 µM) was 46.6%, the viability, T/C (second compound 0.1 µM, first compound 3.16 µM) was 39.2% and the viability, T/C (second compound 0.1 µM, first compound 10 µM) was 29.9%. It also gave a viability, T/C (second compound 0.316 µM, first compound 0.0316 µM) of 94.9%, a viability, T/C (second compound 0.316 µM, first compound 0.1 µM) of 100% and a viability, T/C (second compound 0.316 µM, first compound 0.316 µM) of 50.2%. The viability, T/C (second compound 0.316 µM, first compound 1 µM) was 51.2%, the viability, T/C (second compound 0.316 µM, first compound 3.16 µM) was 38.3% and the viability, T/C (second compound 0.316 µM, first compound 10 µM) was 26.9%. It also gave a viability, T/C (second compound 1 µM, first compound 0.0316 µM) of 86.2%, a viability, T/C (second compound 1 µM, first compound 0.1 µM) of 66.3% and a viability, T/C (second compound 1 µM, first compound 0.316 µM) of 63.1%. It also gave a viability, T/C (second compound 1 µM, first compound 1 µM) of 46.9%, a viability, T/C (second compound 1 µM, first compound 3.16 µM) of 42.5% and a viability, T/C (second compound 1 µM, first compound 10 µM) of 25.7%. It also gave a viability, T/C (second compound 3.16 µM, first compound 0.0316 µM) of 83.9%, a viability, T/C (second compound 3.16 µM, first compound 0.1 µM) of 84.1% and a viability, T/C (second compound 3.16 µM, first compound 0.316 µM) of 63.7%. It also gave a viability, T/C (second compound 3.16 µM, first compound 1 µM) of 46.8%, a viability, T/C (second compound 3.16 µM, first compound 3.16 µM) of 36.8% and a viability, T/C (second compound 3.16 µM, first compound 10 µM) of 27.8%. The viability, T/C (second compound 10 µM, first compound 0.0316 µM) was 78.4%, the viability, T/C (second compound 10 µM, first compound 0.1 µM) was 75.7% and the viability, T/C (second compound 10 µM, first compound 0.316 µM) was 69.8%. For the same compound, the viability, T/C (second compound 10 µM, first compound 1 µM) was 41.2%, the viability, T/C (second compound 10 µM, first compound 3.16 µM) was 30.2% and the viability, T/C (second compound 10 µM, first compound 10 µM) was 26.7%.
